Assay [1] concerns the target T1, Human Aryl Hydrocarbon Receptor (AHR) (Homo sapiens, UniProt P35869).
T1 construct: purchased Indigo Biosciences IB06001
T1 sequence (P35869 11-848): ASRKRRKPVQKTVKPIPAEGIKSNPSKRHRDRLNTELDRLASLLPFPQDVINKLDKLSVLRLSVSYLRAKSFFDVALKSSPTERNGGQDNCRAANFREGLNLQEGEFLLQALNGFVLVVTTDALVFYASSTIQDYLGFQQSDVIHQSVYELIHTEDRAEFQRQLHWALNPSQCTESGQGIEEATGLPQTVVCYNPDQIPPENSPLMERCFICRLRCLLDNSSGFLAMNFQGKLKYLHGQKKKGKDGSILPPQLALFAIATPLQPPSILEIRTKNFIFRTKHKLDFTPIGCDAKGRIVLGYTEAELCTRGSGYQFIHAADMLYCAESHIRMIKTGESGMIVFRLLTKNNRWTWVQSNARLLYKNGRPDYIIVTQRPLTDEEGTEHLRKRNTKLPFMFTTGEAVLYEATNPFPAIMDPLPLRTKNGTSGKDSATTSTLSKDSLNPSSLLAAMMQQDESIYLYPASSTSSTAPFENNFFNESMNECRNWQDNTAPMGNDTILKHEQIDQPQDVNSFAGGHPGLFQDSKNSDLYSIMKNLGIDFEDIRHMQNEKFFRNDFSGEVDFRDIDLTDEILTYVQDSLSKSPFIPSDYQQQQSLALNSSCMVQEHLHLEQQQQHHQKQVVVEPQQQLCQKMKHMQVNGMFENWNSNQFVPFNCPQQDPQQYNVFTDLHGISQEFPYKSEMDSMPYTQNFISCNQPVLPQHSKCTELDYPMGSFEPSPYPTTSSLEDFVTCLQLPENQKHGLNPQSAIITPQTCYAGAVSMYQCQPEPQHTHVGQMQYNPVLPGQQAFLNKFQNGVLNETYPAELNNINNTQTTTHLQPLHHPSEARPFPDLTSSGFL
The assay is described as follows: Human AHR reporter assay (cell-based  luciferase reporter gene assay). On the technique in general: Reporter assays use an easily measured gene product as a stand-in for the process of interest.
Description: AHR Agonist Assay. Human Aryl Hydrocarbon Receptor (AHR) Reporter Assay System [Indigo Biosciences (State College, Pa) Cat #IB06001] was used as per the manufacturer's protocol.
Thus, a series of quinoline-3-carboxamide analogs were synthesized focusing upon adduct changes at the aniline-N. These analogs were synthesized as described in Example 1, and were initially screened for their AHR agonist activity using the in vitro human cell-based ARE-driven luciferase reporter gene assay (Table 3).

The next assay has as its system solid malignances. The note with it: cited from earlier work.
In assay [2] the target is T2, fl-R681A/R798A double mutant HDAC4 / fl-NCoR1 (Homo sapiens, UniProt P56524, R681A/R798A).
T2 construct: Full-length (fl) [A.A. 1-1082] recombinant human histone deacetylase 4 (rhHDAC4) protein; FLAG (N); GST (given as 'with or without'); host or cells: HEK293-T (HDAC4)
T2 sequence (P56524 whole entry R681A/R798A): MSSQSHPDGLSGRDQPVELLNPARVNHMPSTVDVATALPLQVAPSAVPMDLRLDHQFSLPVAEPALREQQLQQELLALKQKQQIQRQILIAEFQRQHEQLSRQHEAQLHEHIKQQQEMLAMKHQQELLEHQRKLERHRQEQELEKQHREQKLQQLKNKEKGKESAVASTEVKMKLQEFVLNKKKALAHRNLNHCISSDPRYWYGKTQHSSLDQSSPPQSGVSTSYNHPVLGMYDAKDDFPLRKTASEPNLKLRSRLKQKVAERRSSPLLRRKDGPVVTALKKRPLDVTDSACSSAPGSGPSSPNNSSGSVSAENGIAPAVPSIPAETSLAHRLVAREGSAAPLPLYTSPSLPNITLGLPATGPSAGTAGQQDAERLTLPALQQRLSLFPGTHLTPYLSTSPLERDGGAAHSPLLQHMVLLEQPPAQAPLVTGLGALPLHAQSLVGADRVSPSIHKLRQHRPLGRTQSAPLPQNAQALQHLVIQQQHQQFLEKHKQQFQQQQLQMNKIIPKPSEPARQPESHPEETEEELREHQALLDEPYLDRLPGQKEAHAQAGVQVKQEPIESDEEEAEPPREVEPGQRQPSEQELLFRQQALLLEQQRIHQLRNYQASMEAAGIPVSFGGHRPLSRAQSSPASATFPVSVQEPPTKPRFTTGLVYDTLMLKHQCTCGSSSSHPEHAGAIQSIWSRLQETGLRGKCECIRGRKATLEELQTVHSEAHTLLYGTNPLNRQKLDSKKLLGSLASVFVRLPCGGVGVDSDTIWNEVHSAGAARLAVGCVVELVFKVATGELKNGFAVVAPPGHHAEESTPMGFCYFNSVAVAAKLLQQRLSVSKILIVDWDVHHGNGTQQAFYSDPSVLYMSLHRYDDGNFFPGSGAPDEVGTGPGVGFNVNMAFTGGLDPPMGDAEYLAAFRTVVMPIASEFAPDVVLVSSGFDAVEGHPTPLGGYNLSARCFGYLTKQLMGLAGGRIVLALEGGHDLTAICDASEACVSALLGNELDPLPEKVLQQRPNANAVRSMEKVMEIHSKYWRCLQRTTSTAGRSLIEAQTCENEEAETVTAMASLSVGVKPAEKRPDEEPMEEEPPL
Description: SPR inhibition of fl-R681A/R798A double mutant HDAC4 binding to fl-NCoR1. The following applies: plateau at 2 μM TasQ. Here is the method:
Surface Plasmon Resonance (SPR) Binding Analysis. SPR analysis was performed on the Biacore 3000™ system using CM5 sensor chips, certified buffers (HBS-P—10 mM HEPES, 0.15 M NaCl, pH 7.4, containing 0.005% v/v Surfactant P; HBS-EP-HBS-P with 3 mM EDTA) and reagents for immobilization and surface regeneration from Biacore, GE Healthcare, Uppsala Sweden. Evaluation of sensorgrams was performed using the BIA-evaluation Software version 4.1 and GraphPad Prism 4. Buffer of protein reagents were changed to HBS-P on Zeba spin desalting columns (Thermo Scientific) prior to being used in SPR analysis (Isaacs 2013).
C. Inhibition of HDAC4-NCoR1 interaction by TasQ. The interaction between HDAC4 and NCoR1 was studied either by injecting NCoR over immobilized HDAC4 or with an alternative orientation where HDAC4 was passed over a surface with covalently coupled NCoR1. Whether TasQ can inhibit the formation of the functional HDAC4-NCoR1 complex was tested by pre-incubation with NCoR1 or HDAC4.
These additional analyses again documented high-affinity binding of the wild-type fl-HDAC4 protein to fl-NCoR1 with such binding being competed by pre-incubation with TasQ in solution (FIG. 21).

The next assay relates to HUVEC. The assay is described as follows: mRNA expression of HUVEC in 3D-fibrin gels with HDF-conditioned media. Format: cell-based, human. The following applies: Fibroblast Conditioned Media: Yes, TasQ (10 μM): Yes. As for the experimental part:
Three Dimensional (3D) Endothelial Sprouting Assay. The assay was performed using a minimum of 3 replicate wells of a 48 well tissue culture plate per drug dose per experiment, repeated 3 independent times in which human umbilical vein endothelial cells (HUVECs) obtained from Lonza Walkersville Inc (Walkersville, MD) attached to gelatin-coated dextran microcarrier bead are embedded in a fibrin matrix as described previously (Brennen et al. Oncotarget 7, 71298-71308 (2016)).
Besides its therapeutic effects on cancer cells, TasQ's anti-cancer efficacy also involves its dose-dependent anti-angiogenic activity (see, e.g., Isaacs 2006, Olsson 2010, Dalrymple 2012), Isaacs 2013, Isaacs 2014, Brennen 2016). To clarify the MoA for this anti-angiogenic activity, a 3-dimensional (3D) endothelial cell sprouting assay was used. In this assay, human umbilical vein endothelial cells (HUVECs) in basal media supplemented with VEGF, EGF, FGF, IGF1 and 2% FBS in standard 2D cultures are attached to collagen-coated beads embedded in a 3D-fibrin gel in the same growth factor-supplemented media. […] This lack of sprouting is associated with an upregulation in Mef-2c mRNA (Table 2) and protein (FIG. 38), and its target genes (Table 2) like Alpha 2 Macroglobulin (A2M). […] When the 3D-fibrin gels are further supplemented with conditioned media (CM) from human dermal fibroblasts (HDF) to provide additional angiogenic factors typically present within the TME A2M (Nakatsu et al. Microvasc Res 66, 102-112 (2003)), expression of the MEF-2c target genes, including A2M, is blocked (Table 2); enabling endothelial cell proliferation and invasion into the gels (i.e., “sprouting”); eventually forming canalized and anastomosing neovascular tubes within 7 days (FIG. 37). Importantly, 3D-sprouting occurs (FIG. 37), even when HIF-1α expression is KD in the HUVEC cells (FIG. 39).

Where two headings read alike, the source gives them in different places.

For `COc1cccc2c1c(O)c(C(=O)N(c1ccc(C(F)(F)F)cc1)C1CCCCC1)c(=O)n2C` [ESATA-20], the EC50 in assay [1] (luciferase reporter gene assay, read-out: AHR agonist EC50) came out at 10000 nM; in assay [1] (n = 4 independent assays/analog, read-out: AHR Agonist Response [EC50] (nM +/−SD)) it was 10200 nM.

What is called inhibition is how much of the control response was suppressed. In the case of `COc1cccc2c1c(O)c(C(=O)N(C)c1ccc(C(F)(F)F)cc1)c(=O)n2C` [TasQ, Tasquinimod], the “fold increase in anti-tumor efficacy compared to Linomide” value in the assay with solid malignances (in vivo) was above 25 fold. The “fold enhanced potency in antiangiogenic and anti-metastatic ability” value with solid malignances (preclinical studies, vs. first-generation Linomide) is on record as 30-60 fold. The inhibition at 2 µM in assay [2] is below 35%. In the assay with HUVEC, this compound displayed an A2M Gene Expression (FPKM), Mef-2c Target Gene of 257 FPKM; an Adamt59 Gene Expression (FPKM), Mef-2c Target Gene of 89.2 FPKM; an Apinr Gene Expression (FPKM), Mef-2c Target Gene of 81.1 FPKM; an Ets1 Gene Expression (FPKM) of 73 FPKM. Further, in the assay with HUVEC, the Ets2 Gene Expression (FPKM) was 45.2 FPKM; the KDR (VEGFR2) Gene Expression (FPKM), Ets Target Gene is 99.3 FPKM; the “LI1 (VEGFR1) Gene Expression (FPKM), Ets Target Gene” value is 106,830 FPKM; the “Mef-2c Target Gene Expression, Gene Expression (FPKM)” value is 21,217 FPKM. In the assay on HUVEC, the “NR4A1 Gene Expression (FPKM), Mef-2c Target Gene” value was 1,598 FPKM; the “NR4A2 Gene Expression (FPKM), Mef-2c Target Gene” value was determined as 297 FPKM; the “SerpinB1 Gene Expression (FPKM), Mef-2c Target Gene” value is on record as 4,926 FPKM; the “Spry Gene Expression (FPKM), Mef-2c Target Gene” value is on record as 11,728 FPKM. Also, the “Stc1 Gene Expression (FPKM), Mef-2c Target Gene” value in the assay on HUVEC is recorded as 18,619 FPKM.

The values above are taken from patent publication US20250059139A1, “COMPOUNDS FOR TREATMENT OF CANCER” (THE JOHNS HOPKINS UNIVERSITY, priority 2021, published 2025).
